Experiment [1] relates to ALS patient-derived neurons (iPS cell-derived motor neurons, heterozygous TARDBP mutation). The experiment can be described thus: Evaluation of cellular damage by live cell imaging, ALS patient-derived neurons. The experiment is classed as cell-based, human. As to conditions: edaravone 30 μM, 24 hours. Here is the method: (§1) Human induced pluripotent stem (iPS) cells were induced from cells derived from an ALS patient and cells derived from a healthy individual using a conventional method. The cells derived from the ALS patient were used that are known to have an ALS risk mutation as a heterozygous mutation in the TARDBP gene. Each iPS cell was differentiated into a motor neuron (hereinafter, also simply referred to as a “neuron”) using a conventional method. […]
A treatment was performed in which the culture medium dissolved with a dimethyl sulfoxide (DMSO) solution of the evaluation compound (edaravone) (final concentration: edaravone 30 μM, DMSO 0.03% v/v) was brought into contact with the neurons after 7 days of cultivation, and occurrence of cellular damage was evaluated over time. […]
Evaluation of cellular damage was performed by live cell imaging using IncuCyte S3 (Sartorius) and Cytotox (Sartorius, 4846) according to an attached protocol. The neurite length per unit area (unit: mm/mm^2) and the number of dead cells (unit: count/image) were analyzed over time and used as evaluation indicators. […]

The subject of experiment [2] is TDP-43 in healthy individual-derived neurons. The experiment in a line: TDP-43 localization evaluation, healthy individual-derived neurons. The experiment is classed as cell-based, human. The following applies: edaravone treatment, DMSO group = 100 (FIG. 15).
From the text: as §1
Intracellular localization of TDP-43 polypeptides was evaluated by immunofluorescence staining of neurons. […] After further nuclear staining, washing with PBS, and imaging under a fluorescence microscope were performed. The captured images were analyzed using Matlab (Mathworks), and fluorescence intensities of TDP-43 in a nuclear region and in a cytoplasmic region were respectively calculated. […]
Regarding the intracellular localization of TDP-43 polypeptides, the nuclear and cytoplasmic TDP-43 fluorescence intensities and the cytoplasmic/nuclear TDP-43 intensity ratios in ALS cells and healthy cells are shown in FIG. 15. […]

Experiment [3] deals with disease model cells (neurons derived from the 1464R cell line forcibly expressing wild-type and mutant TDP-43). The experiment in a line: Evaluation of cell protection by microscopic observation. It is filed as cell-based, rat. As to conditions: Eda 200 μmol/L 24 h, then EA 20 μmol/L 24 h; fluorescence microscope (FIG. 2).
Description: As a target, a 1464R adult rat neural stem cell line (hereinafter also referred to as the “1464R cell line” or “undifferentiated cell line”) was used.
Next, using a differentiation medium shown below, the 1464R cell line was cultured in an adherent state on a poly-L-lysine treated dish. Culture conditions for cell differentiation were 37° C., 5% CO2, and 4 days. Through this process, the 1464R cell line was differentiated into neuronal cells (neurons). Further, the 1464R cell line partly differentiated into glial cells. In the following description, the differentiated 1464R cell line is also collectively referred to as the “differentiated cell line.”
Using both vectors (a) and (b), the differentiated cell line in the infection medium was infected with adenovirus at a multiplicity of infection of 50, and cultured for 24 hours.
Using a 96-well plate treated with poly-L-lysine, cells were seeded at a concentration of 8×10^4 cells/well, cultured and differentiated under the conditions of (1) in Example 1.
Then, cell morphology in each group was observed using a fluorescence microscope.
Cell nuclei were fluorescently stained using Hoechst 33342 using a conventional method.
The test system of experiment [4] is disease model cells, TDP-43 (+). The experiment in a line: Evaluation of cell protection using chromogenic substrate (2), without EA. As to conditions: Eda 50 or 100 μmol/L 96 h, no EA; vs Comparative Example 2 (FIG. 12). It is filed as cell-based, rat. From the text: Using the differentiated cell line prepared using the method of Example 1 (indicated as “TDP-43 (−)” in FIG. 12), an Eda-unexposed group (Reference Example 2) and a 96-hour Eda-exposed group (final concentration 100 μmol/L) (Reference Example 3) were each prepared.
Further, using the disease model cells prepared using the method of Example 1 (indicated as “TDP-43 (+)” in FIG. 12), an Eda-unexposed group (Comparative Example 2) and 96-hour Eda-exposed groups (final concentration 50 or 100 μmol/L) (Examples 5-1 and 5-2) were each prepared.
All of these were performed without containing EA.
After that, similar to Example 3-1 and the like, a cell toxicity measurement kit was used to expose the cells in each group according to a product protocol, and an amount of chromogenic substrate produced was measured by absorbance at 450 nm.
The data shown in FIG. 12 are all expressed as mean±standard error of the mean (SEM, n=4 for each). In FIG. 12, the symbol “##” indicates a statistically significant difference of p<0.01 compared to Comparative Example 2. In FIG. 12, the symbol “**” indicates a statistically significant difference of p<0.05 compared to Comparative Example 2. In FIG. 12, the symbol “$” indicates a statistically significant difference of p<0.05 compared to Reference Example 2 (all determined by Student t-test).

These results are taken from patent publication US20250137054A1, “COMPOSITION AND METHOD FOR EVALUATING RESPONSIVENESS OF EDARAVONE” (MITSUBISHI TANABE PHARMA CORPORATION, priority 2022, published 2025).

Each structure is given as a SMILES string.

For `CC1=NN(c2ccccc2)C(=O)C1` [edaravone, 5-methyl-2-phenyl-2,4-dihydro-3H-pyrazol-3-one], in experiment [1] (vs DMSO-treated group (FIG. 13)), the “neurite length (rate of change, DMSO group = 100)” value was “significantly increased”. The “number of dead neurons (rate of change, DMSO group = 100)” value in experiment [1] (vs DMSO-treated group (FIG. 14)) is “significantly decreased”. The “effect of decreasing the cytoplasmic/nuclear TDP-43 intensity ratio” value in experiment [2] is on record as “not observed”. The “neuron-specific protrusion shape observed by the localization of tubulin βIII” value in experiment [3] was “sufficiently maintained”. Moreover, the “number of viable cells (absorbance at 450 nm)” value in experiment [4] is given as “higher number of viable cells”.
